# Measured values: article PMC9783868, “Indoline-5-Sulfonamides: A Role of the Core in Inhibition of Cancer-Related Carbonic Anhydrases, Antiproliferative Activity and Circumventing of Multidrug Resistance” (Pharmaceuticals, 2022)
# How the values were obtained:
# Format in all cases: cell-based, human
# A431 skin cancer cells = assay: Antiproliferative activity, MTT test; details: 72 h, hypoxic conditions
# Source text: To evaluate the influence of CA inhibition on the antiproliferative activity, we selected five compounds 4b, f, m, n and 10 with different inhibition profiles against CA IX for in-depth testing on cancer cells with increased CA IX expression. The database www.proteinatlas.org (accessed on 13 October 2022) contains data on gene expression in various cell lines. According to the data obtained from this database, A431 cells express CA IX at a very high level, which distinguishes them from human cell lines belonging to other tissues [https://www.proteinatlas.org/ENSG00000107159-CA9/cell+line (accessed on 13 October 2022)]. A431 cells are skin cancer cells, and their growth has already been intensely analyzed in hypoxia. […] Moreover, Ren and colleagues described that hypoxia modulates cellular pathways in A431 cells, which are associated with radioresistance and enhanced migration. Given the observations described above, we were expecting to reveal the high antiproliferative activity of the selected compounds against skin cancer cells. […] In hypoxia, the activity of tested compounds was increased, but the 50% inhibition of growth was never achieved.
# The MCF7 human breast, A431 human skin cancer cells and K562 (ATCC CCL-243) chronic myelogenous leukemia cells were obtained from the ATCC collection. The MDR subline K562/4 [77] […] The growth inhibitory activity of compounds was assessed by the MTT test based on the metabolism of the MTT reagent (3-[4,5-dimethylthiazol-2-yl]-2,5-diphenyltetrazolium bromide) (Applichem) in living cells, with modifications as described previously in [49]. […] Culture plates were gently shaken, and the absorbance was measured at 571 nm with a reference wavelength of 630 nm on a MultiScan reader (ThermoFisher, Waltham, MA, USA). The viability of the cells was expressed as a percentage of the control. Dose-response curves were analyzed by regression analysis using sigmoid curves (Log(concentration) vs. normalized absorbance).
# CA IX = assay: Immunoblotting of hypoxia-induced protein expression in A431 cells; details: hypoxia 24 h
# Experimental: (§1) We wondered whether compound 4f affected CA IX expression or whether its activity was limited to inhibiting the enzyme activity reported above (Table 1). To induce CA IX expression, cells were placed in hypoxia for 24 h, and then protein expression was analyzed by immunoblotting. Because the data on the expression of hypoxia-related proteins in the literature are highly inconsistent, we introduced additional controls. Antibodies to hypoxia-regulated and “non-hypoxic” proteins were used. The expression of kinase Akt, which is not regulated directly by hypoxia/HIF-1α, was not altered under hypoxia conditions (Figure 5F). […] Thus, lead compound 4f not only blocks the enzyme activity of CA IX, but also causes partial inhibition of hypoxia-induced CA IX expression in skin cancer cells.
# (§2) A431 cells were seeded on 100 mm dishes (Corning, Corning, NY, USA), and after 24 h growth, the compound 4f was added to a fresh medium. To prepare cell extracts, A431 cells were twice washed in phosphate buffer and incubated for 10 min on ice in the modified lysis buffer containing 50 mM Tris-HCl, pH 7.5, 0.5% Igepal CA-630, 150 mM NaCl, 1 mM EDTA, 1 mM DTT, 1 mM PMSF, 0.1 mM sodium orthovanadate and aprotinin, leupeptin and pepstatin (1 µg/mL each) as described earlier in the work. The protein content was determined by the Bradford method.
# (§3) A431 cell lysates were separated in 10% SDS-PAGE under reducing conditions, transferred to a nitrocellulose membrane (GE HealthCare, Chicago, IL, USA), and processed according to a standard protocol. Akt, GLUT1, PD-L1, and CA IX antibodies were obtained from Cell Signaling Technology (Danvers, MA, USA); the antibodies against GAPDH (Cell Signaling Technology) were added to standardize loading. Goat anti-rabbit IgGs (Jackson ImmunoResearch, West Grove, PA, USA) conjugated to horseradish peroxidase were used as secondary antibodies. Signals were detected using the ECL reagent as described in Mruk and Cheng’s protocol and an ImageQuant LAS4000 system (GE HealthCare).
# GLUT1 = assay: as above; details: hypoxia 24 h
# Experimental: as §1, §2, §3
# PD-L1 = assay: as above; details: hypoxia 24 h
# Experimental: as §1, §2, §3
smiles,measurement,setting,value
"NS(=O)(=O)c1ccc2c(c1)CCN2C(=O)c1cccc(Cl)c1 [Compound 4f, 1-(3-Chlorobenzoyl)indoline-5-sulfonamide]","inhibition of growth of A431 cells, hypoxia",A431 skin cancer cells,44%
same,CA IX expression in A431 cells,CA IX,moderate decrease
same,GLUT1 expression in A431 cells,GLUT1,did not change
same,PD-L1 expression in A431 cells,PD-L1,did not change
